Assay results published in patent US12304890B2, “R-type pyridyloxycarboxylic acid, salt and ester derivative thereof, and preparation method therefor, and herbicidal composition and application thereof” (Qingdao Kingagroot Chemical Compound Co., Ltd., priority 2018, dated 2025).

Assays:
Assay type in all cases: in vivo
Digitaria sanguinalis = experiment: Post-emergence test experiment, Digitaria sanguinalis; settings: 1000 g a.i./ha, 3 weeks in greenhouse, fresh weight inhibition
How it was run: (§1)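 Read-out is fresh weight inhibition rate, taken 3 weeks after spraying. Treatment was applied to plants at the 2-3 leaf stage, grown from seed under 0.5-2 cm soil in greenhouse pots. Spray solution contained acetone, tween-80 and methyl oleate emulsible concentrate at 1.5 liters per hectare.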

[1] = tested on: Monocotyledonous and dicotyledonous weed seeds and main crop seeds; experiment: Post-emergence test experiment, other weeds and crops (Table 4, 1000 g a.i./ha); settings: 3 weeks in greenhouse, fresh weight inhibition
How it was run: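 Weed and crop seeds (wheat, corn, rice, soybean, cotton, oilseed, millet, sorghum) sown in soil pots in a greenhouse and sprayed at 2-3 leaf stage, 2 weeks after sowing. Compound in acetone/tween-80 with methyl oleate concentrate (1.5 L/ha) as synergist. Effect recorded as fresh-weight growth inhibition rate.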

Echinochloa crusgalli = experiment: Post-emergence test experiment, Echinochloa crusgalli; settings: 1000 g a.i./ha, 3 weeks in greenhouse, fresh weight inhibition
How it was run: as §1

| SMILES | Activity level (growth inhibition rate), Digitaria sanguinalis (Digitaria sanguinalis) | Activity level (growth inhibition rate), Abutilon theophrasti Medic. [1] | Activity level (growth inhibition rate), Galium aparine [1] | Activity level (growth inhibition rate), Monochoria Vaginalis [1] | Activity level (growth inhibition rate), Echinochloa crusgalli (Echinochloa crusgalli) |
| --- | --- | --- | --- | --- | --- |
| C[C@@H](Oc1nc(F)c(Cl)c(N)c1Cl)C(=O)SCc1ccc(C(F)(F)F)cc1 [Compound 2-332] | 5 (Level 5: the growth inhibition rate is greater than 85%) | 5 (Level 5: the growth inhibition rate is greater than 85%) | 5 (Level 5: the growth inhibition rate is greater than 85%) | 5 (Level 5: the growth inhibition rate is greater than 85%) | 5 (Level 5: the growth inhibition rate is greater than 85%) |
| C[C@@H](Oc1nc(F)c(Cl)c(N)c1Cl)C(=O)OCc1ccccc1C#N [Compound 2-333] | 5 (Level 5: the growth inhibition rate is greater than 85%) | 5 (Level 5: the growth inhibition rate is greater than 85%) | 5 (Level 5: the growth inhibition rate is greater than 85%) | 5 (Level 5: the growth inhibition rate is greater than 85%) | 5 (Level 5: the growth inhibition rate is greater than 85%) |
| C[C@@H](Oc1nc(F)c(Cl)c(N)c1Cl)C(=O)SCc1ccccc1C#N [Compound 2-334] | 5 (Level 5: the growth inhibition rate is greater than 85%) | 5 (Level 5: the growth inhibition rate is greater than 85%) | 5 (Level 5: the growth inhibition rate is greater than 85%) | 5 (Level 5: the growth inhibition rate is greater than 85%) | 5 (Level 5: the growth inhibition rate is greater than 85%) |
| C[C@@H](Oc1nc(F)c(Cl)c(N)c1Cl)C(=O)OCc1cccc(C#N)c1 [Compound 2-335] | 5 (Level 5: the growth inhibition rate is greater than 85%) | 5 (Level 5: the growth inhibition rate is greater than 85%) | 5 (Level 5: the growth inhibition rate is greater than 85%) | 5 (Level 5: the growth inhibition rate is greater than 85%) | 5 (Level 5: the growth inhibition rate is greater than 85%) |
| C[C@@H](Oc1nc(F)c(Cl)c(N)c1Cl)C(=O)SCc1cccc(C#N)c1 [Compound 2-336] | 5 (Level 5: the growth inhibition rate is greater than 85%) | 5 (Level 5: the growth inhibition rate is greater than 85%) | 5 (Level 5: the growth inhibition rate is greater than 85%) | 5 (Level 5: the growth inhibition rate is greater than 85%) | 5 (Level 5: the growth inhibition rate is greater than 85%) |
| C[C@@H](Oc1nc(F)c(Cl)c(N)c1Cl)C(=O)OCc1ccc(C#N)cc1 [Compound 2-337] | 5 (Level 5: the growth inhibition rate is greater than 85%) | 5 (Level 5: the growth inhibition rate is greater than 85%) | 5 (Level 5: the growth inhibition rate is greater than 85%) | 5 (Level 5: the growth inhibition rate is greater than 85%) | 5 (Level 5: the growth inhibition rate is greater than 85%) |
| C[C@@H](Oc1nc(F)c(Cl)c(N)c1Cl)C(=O)SCc1ccc(C#N)cc1 [Compound 2-338] | 5 (Level 5: the growth inhibition rate is greater than 85%) | 5 (Level 5: the growth inhibition rate is greater than 85%) | 5 (Level 5: the growth inhibition rate is greater than 85%) | 5 (Level 5: the growth inhibition rate is greater than 85%) | 5 (Level 5: the growth inhibition rate is greater than 85%) |
| C[C@@H](Oc1nc(F)c(Cl)c(N)c1Cl)C(=O)Sc1ccc2ccccc2c1 [Compound 2-339] | 5 (Level 5: the growth inhibition rate is greater than 85%) | 5 (Level 5: the growth inhibition rate is greater than 85%) | 5 (Level 5: the growth inhibition rate is greater than 85%) | 5 (Level 5: the growth inhibition rate is greater than 85%) | 5 (Level 5: the growth inhibition rate is greater than 85%) |
| C[C@@H](Oc1nc(F)c(Cl)c(N)c1Cl)C(=O)OCc1ccc2ccccc2c1 [Compound 2-340] | 5 (Level 5: the growth inhibition rate is greater than 85%) | 5 (Level 5: the growth inhibition rate is greater than 85%) | 5 (Level 5: the growth inhibition rate is greater than 85%) | 5 (Level 5: the growth inhibition rate is greater than 85%) | 5 (Level 5: the growth inhibition rate is greater than 85%) |
| C[C@@H](Oc1nc(F)c(Cl)c(N)c1Cl)C(=O)OCc1cccc2ccccc12 [Compound 2-341] | 5 (Level 5: the growth inhibition rate is greater than 85%) | 5 (Level 5: the growth inhibition rate is greater than 85%) | 5 (Level 5: the growth inhibition rate is greater than 85%) | 5 (Level 5: the growth inhibition rate is greater than 85%) | 5 (Level 5: the growth inhibition rate is greater than 85%) |
| C[C@@H](Oc1nc(F)c(Cl)c(N)c1Cl)C(=O)OCc1ccccn1 [Compound 2-342] | 5 (Level 5: the growth inhibition rate is greater than 85%) | 5 (Level 5: the growth inhibition rate is greater than 85%) | 5 (Level 5: the growth inhibition rate is greater than 85%) | 5 (Level 5: the growth inhibition rate is greater than 85%) | 5 (Level 5: the growth inhibition rate is greater than 85%) |
| C[C@@H](Oc1nc(F)c(Cl)c(N)c1Cl)C(=O)OCc1ccncc1 [Compound 2-344] | 5 (Level 5: the growth inhibition rate is greater than 85%) | 5 (Level 5: the growth inhibition rate is greater than 85%) | 5 (Level 5: the growth inhibition rate is greater than 85%) | 5 (Level 5: the growth inhibition rate is greater than 85%) | 5 (Level 5: the growth inhibition rate is greater than 85%) |
| C[C@@H](Oc1nc(F)c(Cl)c(N)c1Cl)C(=O)SCc1ccncc1 [Compound 2-345] | 5 (Level 5: the growth inhibition rate is greater than 85%) | 5 (Level 5: the growth inhibition rate is greater than 85%) | 5 (Level 5: the growth inhibition rate is greater than 85%) | 5 (Level 5: the growth inhibition rate is greater than 85%) | 5 (Level 5: the growth inhibition rate is greater than 85%) |
| C[C@@H](Oc1nc(F)c(Cl)c(N)c1Cl)C(=O)OCc1cccnc1 [Compound 2-346] | 5 (Level 5: the growth inhibition rate is greater than 85%) | 5 (Level 5: the growth inhibition rate is greater than 85%) | 5 (Level 5: the growth inhibition rate is greater than 85%) | 5 (Level 5: the growth inhibition rate is greater than 85%) | 5 (Level 5: the growth inhibition rate is greater than 85%) |
| C[C@@H](Oc1nc(F)c(Cl)c(N)c1Cl)C(=O)SCc1cccnc1 [Compound 2-347] | 5 (Level 5: the growth inhibition rate is greater than 85%) | 5 (Level 5: the growth inhibition rate is greater than 85%) | 5 (Level 5: the growth inhibition rate is greater than 85%) | 5 (Level 5: the growth inhibition rate is greater than 85%) | 5 (Level 5: the growth inhibition rate is greater than 85%) |
| C[C@@H](Oc1nc(F)c(Cl)c(N)c1Cl)C(=O)OCc1ccoc1 [Compound 2-349] | 5 (Level 5: the growth inhibition rate is greater than 85%) | 5 (Level 5: the growth inhibition rate is greater than 85%) | 5 (Level 5: the growth inhibition rate is greater than 85%) | 5 (Level 5: the growth inhibition rate is greater than 85%) | 5 (Level 5: the growth inhibition rate is greater than 85%) |
